Data: paper PMC12615753, “Glutathione as a taste modulator: molecular mechanisms of interaction with umami and sweet taste receptors” (Food Chemistry: Molecular Sciences, 2025)

Molecular target: T1, hTAS1R2/hTAS1R3(r570–858) (Homo sapiens, UniProt Q7RTX0+Q8TE23, A579V/A607F/A718V/A733V/A735I/A808T/C675Y/C757R/D670N/F730L/G674S/G822E/H593Y/H712Q/L571S/L639M/L789Y/L798I/L800F/L816V/M689T/M713V/M818L/P605S/P630S/P826Q/Q627R/Q820L/R594W/R632S/R671W/R752Q/R790Q/R813K/R819W/S577C/S629R/S640A/S673C/T697A/T724M/T739V/T774I/V583T/V612I/V617F/V693A/V701M/V720E/V788A/V802A)
T1 construct: hTAS1R3(r570–858) consists of the N-terminal extracellular domain of hTAS1R3 and the TMD of rTAS1R3; TMD of rTAS1R3 (r570–858); expressed in transfected cells
Test: Calcium assay, chimeric TAS1R3 co-expressed with hTAS1R2
Type: cell-based, rat
Excerpt: Chimeric Gα proteins, such as Gα16Gust44, Gα16Gi3 or Gα15i2, are widely used in the functional expression of TAS1R receptors ([Backes et al., 2015]; [Suess et al., 2015]; [Toda et al., 2021], [Toda et al., 2013], [Toda et al., 2018]; [Zhang et al., 2008]). Chimeric Gα15i2 (([Toda et al., 2013]), Supplementary data) was generated by replacing the last five residues of the C-terminal tail of rat Gα15i2 (EINLL) (UniProt number G3V6N8; https://www.uniprot.org/uniprot/) with the counterpart sequence from human GNAI2 (DCGLF) (UniProt number P04899-1) and cloning into the pcDNA3.1/Hygro vector (Invitrogen, Thermo Fisher Scientific, Illkirch, France) between the HindIII and NotI restriction sites, resulting in the plasmid pcDNA3.1-Gα15i2. Chimeric Gα16Gust44 construct have already been reported ([Raliou et al., 2011]). Briefly, Gα16Gust44 was generated by replacing the C-terminal of Gα16 with the C-terminal 44 residues of gustducin. As previously described, hTAS1R1 was amplified from human fungiform papillae cDNA and cloned and inserted into pcDNA3 (Invitrogen), generating pcDNA3-TAS1R1-WT (wild-type) ([Raliou et al., 2011]). […]

T1 sequence (Q8TE23 20-839, stated change not applied): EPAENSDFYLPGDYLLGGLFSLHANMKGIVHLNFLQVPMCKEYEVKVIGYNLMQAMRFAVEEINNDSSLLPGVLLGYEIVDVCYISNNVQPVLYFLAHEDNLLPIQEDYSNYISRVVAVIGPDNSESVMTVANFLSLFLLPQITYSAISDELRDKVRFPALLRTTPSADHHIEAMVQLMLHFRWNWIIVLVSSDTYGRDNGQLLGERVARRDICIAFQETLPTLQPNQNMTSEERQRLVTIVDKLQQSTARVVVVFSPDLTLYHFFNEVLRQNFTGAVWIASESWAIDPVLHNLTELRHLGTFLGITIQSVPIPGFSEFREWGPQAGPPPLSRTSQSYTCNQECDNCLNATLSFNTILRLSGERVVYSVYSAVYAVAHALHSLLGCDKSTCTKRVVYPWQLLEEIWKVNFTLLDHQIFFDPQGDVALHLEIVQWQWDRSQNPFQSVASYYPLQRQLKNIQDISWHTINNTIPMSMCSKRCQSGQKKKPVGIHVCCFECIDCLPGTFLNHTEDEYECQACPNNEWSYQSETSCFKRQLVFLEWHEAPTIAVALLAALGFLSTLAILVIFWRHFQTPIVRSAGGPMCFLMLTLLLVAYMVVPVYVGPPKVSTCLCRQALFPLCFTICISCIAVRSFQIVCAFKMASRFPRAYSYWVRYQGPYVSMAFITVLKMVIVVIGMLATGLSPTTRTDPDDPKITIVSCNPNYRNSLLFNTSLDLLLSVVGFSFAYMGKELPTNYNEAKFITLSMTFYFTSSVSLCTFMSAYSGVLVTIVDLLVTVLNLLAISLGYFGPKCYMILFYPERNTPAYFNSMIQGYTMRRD
T1 sequence (Q7RTX0 with tags, fused parts or gaps with the stated changes limits assumed): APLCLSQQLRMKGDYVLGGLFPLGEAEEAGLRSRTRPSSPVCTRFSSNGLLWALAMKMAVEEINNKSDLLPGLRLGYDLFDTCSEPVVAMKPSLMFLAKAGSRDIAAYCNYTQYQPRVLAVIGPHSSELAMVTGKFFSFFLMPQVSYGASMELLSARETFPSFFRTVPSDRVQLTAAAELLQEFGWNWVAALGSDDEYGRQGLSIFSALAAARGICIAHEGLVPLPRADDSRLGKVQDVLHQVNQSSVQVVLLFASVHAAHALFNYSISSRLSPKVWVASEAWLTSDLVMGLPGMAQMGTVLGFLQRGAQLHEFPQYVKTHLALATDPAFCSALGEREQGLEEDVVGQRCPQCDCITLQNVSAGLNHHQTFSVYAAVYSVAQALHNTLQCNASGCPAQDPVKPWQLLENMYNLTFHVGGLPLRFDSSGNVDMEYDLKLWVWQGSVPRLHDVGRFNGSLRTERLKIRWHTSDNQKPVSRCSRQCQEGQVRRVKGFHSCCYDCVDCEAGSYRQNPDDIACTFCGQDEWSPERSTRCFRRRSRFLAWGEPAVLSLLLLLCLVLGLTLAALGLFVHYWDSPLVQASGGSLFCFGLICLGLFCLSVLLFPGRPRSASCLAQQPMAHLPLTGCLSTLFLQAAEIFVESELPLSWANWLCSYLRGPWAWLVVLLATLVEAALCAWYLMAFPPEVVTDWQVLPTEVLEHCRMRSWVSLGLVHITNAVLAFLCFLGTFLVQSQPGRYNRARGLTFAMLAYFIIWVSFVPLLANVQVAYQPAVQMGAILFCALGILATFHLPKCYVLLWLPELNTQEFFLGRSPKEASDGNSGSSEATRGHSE

SMILES | EC50 (sucralose alone, Fig. 3B) | effect of GSH on the response to sucralose
OC[C@H]1O[C@H](O[C@]2(CCl)O[C@H](CCl)[C@@H](O)[C@@H]2O)[C@H](O)[C@@H](O)[C@H]1Cl [sucralose, reference compound] | 67 ± 1 µM | 
N[C@@H](CCC(=O)N[C@@H](CS)C(=O)NCC(=O)O)C(=O)O [GSH, γ-L-glutamyl-L-cysteinyl-glycine] |  | unaffected
